Assay results: patent US20170226507A1, “COORDINATE CONTROL OF PATHOGENIC SIGNALING BY THE MIR-130/301 FAMILY IN PULMONARY HYPERTENSION AND FIBROPROLIFERATIVE DISEASES” (The Brigham and Women's Hospital, Inc., priority 2014, published 2017)
Entries after “also recorded” stand apart in the source; their conditions may differ.

Key:
miR-130/301 family = test: RT-qPCR of miR-130/301 family members after transfection of oligonucleotide inhibitors (specificity), PASMCs; type: cell-based, human; settings: normoxia and hypoxia
Excerpt: FIGS. 14A-14C show the comparison of the specificity of miR-130/301 oligonucleotide inhibitors. (FIG. 14A) Overview of the miRNA silencing approach using seed-targeting tiny locked nucleic acid (LNA) molecules. Tiny LNAs were designed as fully LNA-modified oligonucleotides complementary to the seed region of the miR-130/301 family. The high binding affinity of tiny LNA enables functional inhibition of co-expressed members of miRNA seed families, which leads to de-repression of target mRNAs. Sequences shown in FIG. 14A are miR-130a (SEQ ID NO: 4), miR-130b (SEQ ID NO: 5), miR-301a (SEQ ID NO: 6), miR-301b (SEQ ID NO: 7) and tiny-LNA-130 ([…] SEQ ID NO: 3). […] In the setting of exposure to hypoxia (0.2% O2; 24 h) or normoxia (21% O2; 24 h), expression levels of miR-130/301 family members in PAECs (FIG. 14B) and PASMCs (FIG. 14C) were quantified after transfection with anti-miR-130a versus control (anti-miR-NC) (left panels) or tiny-LNA-130 versus control (tiny-LNA-NC) (right panels). […]
Cells were homogenized in 2 ml of QiaZol reagent (Qiagen). […] Total RNA concentration was determined using a ND-1000 micro-spectrophotometer (NanoDrop Technologies).
Mature miRNA expression was evaluated using TaqMan MicroRNA Assays (Life Technologies/Applied Biosystems) and the Applied Biosystems 7900HT Fast Real Time PCR device (Life Technologies/Applied Biosystems). […]

PAECs = test: Gene/miRNA expression in transfected or drug-treated PAECs (immunoblotting, RT-qPCR); type: cell-based, human
Excerpt: Pre-miRNA oligonucleotides (pre-miR-130a, pre-miR-204, pre-miR-424, and pre-miR-503 and negative control pre-miR-NC1 and premiR-NC2, Life Technologies), anti-miRNAs oligonucleotides (anti-miR-130a and anti-miR-NC, ThermoScientific), tiny LNA oligonucleotides (tiny-130: 5′-[…]-3′ (SEQ ID NO: 3), and tiny-NC 5′-[…]-3′ (SEQ ID NO: 51), Exiqon), siRNAs (PPARγ and scrambled control, Santa Cruz Biotechnology; HIF-1α, HIF-2α, and scrambled control, Life Technologies) were commercially purchased. PAECs and PASMCs were plated and transfected 24 h later at 70-80% confluence using pre-miRNA (5 nM), anti-miRNA (20 nM), tiny-LNA (20 nM) or siRNA (25 nM) with Lipofectamine 2000 reagent (Life Technologies), according to the manufacturers' instructions.
Primary human pulmonary arterial endothelial cells (PAECs) were purchased and propagated in EGM-2 cell culture media (Lonza). Experiments were performed at passages 3 to 6. Primary human pulmonary arterial smooth muscle cells (PASMCs) were purchased and propagated in SmGM-2 cell culture media (Lonza). Experiments were performed at passages 3 to 9. HEK293T cells (American Type Culture Collection) were used and cultivated in DMEM containing 10% fetal bovine serum (FBS). Cells were cultured at 37° C. in a humidified 5% CO2 atmosphere. A modular hypoxia chamber at 0.2% oxygen, 94.8% nitrogen and 5% carbon dioxide was used during 24 h for hypoxic conditions. Cultured cells were exposed to recombinant human IL-1α at 10 ng·mL-1 (Peprotech). Recombinant human IL-6 (Peprotech) was used at 100 ng·mL-1. Rosiglitazone (Sigma) was used at 10 μM.
Mature miRNA expression was evaluated using TaqMan MicroRNA Assays (Life Technologies/Applied Biosystems) and the Applied Biosystems 7900HT Fast Real Time PCR device (Life Technologies/Applied Biosystems). Expression levels were normalized to RNU48 or snoR55 for human or mouse experiments, respectively, and calculated using the comparative Ct method (2^−ΔΔCt) as we previously described (1).
Messenger RNAs were reverse transcribed using the Multiscript RT kit (Life Technologies) to generate cDNA. cDNA was amplified via fluorescently labeled Taqman primer sets using an Applied Biosystems 7900HT Fast Real Time PCR device, as we previously described (1). Fold-change of RNA species was calculated using the formula (2^−ΔΔCt), normalized to actin expression.
Cells were lysed in RIPA buffer (Santa Cruz Biotechnology) and the protein concentration determined using a Bradford assay (Biorad). Protein lysate ([…]) were resolved by SDS-PAGE and transferred onto a PVDF membrane (Biorad). Membranes were blocked in 5% non-fat milk in TN buffer (50 mM Tris-HCl pH 7.4, 150 mM NaCl) and incubated in the presence of the primary and then secondary antibodies. After washing in TN buffer containing 0.1% Tween, immunoreactive bands were visualized with the ECL system (Amersham Biosciences). […] Primary antibodies for STAT3 (#9139) and P-STAT3 (Tyr-705; #9145) were purchased from Cell Signaling. Primary antibodies against actin (ab 3280), α-smooth-muscle-actin (ab 32575), CD31 (ab28364), and PCNA (ab 29) were obtained from Abcam. Appropriate secondary antibodies (anti-rabbit and anti-mouse) coupled to HRP were used (Santa Cruz Biotechnology).
Pre-miRNA oligonucleotides (pre-miR-130a and negative control pre-miR-NC1 and premiR-NC2), anti-miRNAs oligonucleotides (anti-miR-130a and anti-miR-NC), and custom designed tiny LNA oligonucleotides (tiny-130: 5′-[…]-3′ (SEQ ID NO: 3), and tiny-NC 5′-[…]-3′ (SEQ ID NO: 51)) were purchased from Life Technologies/Ambion, ThermoScientific/Dharmacon, and Exiqon, respectively. siRNAs for PPARγ and scrambled control were purchased from Santa Cruz Biotechnology. PAEC and PASMC were plated and transfected 24 h later at 70-80% confluence using pre-miRNA (5 nM), anti-miRNA (20 nM), tiny-LNA (20 nM) or siRNA (25 nM) and Lipofectamine 2000 reagent (Life Technologies), according to the manufacturers' instructions. […]

[1] = transcripts 48 h after transfection

tiny-LNA-130: fully LNA-modified tiny LNA oligonucleotide 5′-ATTGCACT-3′ (SEQ ID NO: 3) complementary to the seed region of the miR-130/301 family (all LNA, backbone and methylation of C not given here)
expression of all miR-130/301 family members (miR-130/301 family): down-regulated; also recorded: effective inhibitors of the entire miR-130/301 family | PPARγ expression (PAECs; immunoblotting, densitometry): increased | downstream gene/subordinate miRNA alterations (PPARγ, apelin, miR-424, miR-503, FGF2) (PAECs; normoxia or hypoxia, compared with anti-miR-130a): reversed these downstream gene/subordinate miRNA alterations to a greater extent than inhibition of miR-130a alone | collagen, CTGF, and LOX (PAECs; tiny-LNA-130: stiffness-mediated up-regulation): reversed | CCND1 expression (PAECs; [1]): decreased | CDKN1A, CDKN1B and CDKN2A expression (PAECs; [1]): increased | gene expression changes in VEGFA, EDN1 and NOS3 (PAECs; vs tiny-LNA-NC, transcript in hypoxia, protein in normoxia): reversed these gene expression changes
